Results on one molecule are retold here after patent US8518946B2, “Salts of (R)-7-[3-amino-4-(2,4,5-trifluorophenyl)butanoyl]-3-trifluoromethyl-5,6,7,8-tetrahydroimidazo[1,5-a] pyrazine-1-carboxylic acid, preparation method and medical use thereof” (Jiangsu Hengrui Medicine Co., Ltd., priority 2009, dated 2013).

Read-outs that look alike come from different tables or passages of the source.

The subject of series [1] is normal ICR mice. Put plainly: Hypoglycemic effect, oral glucose tolerance in normal ICR mice. In kind it is in vivo. The following applies: 10 mg/kg by gavage, glucose 4 g/kg 15 minutes after administration. The protocol:
To observe the effects on oral glucose tolerance of the compounds of Example 1-4 and Example 8-12 in normal ICR mice (SINO-BRITSH SIPPR/BK LAB.ANIMAL LTD., CO), the hypoglycemic effects in vivo have been evaluated using blood-glucose meter to measure and analyze the sugar content of the samples at different time points during 2 hours. The samples were taken from the mouse's tail.
The administration dose was 10 mg/kg, and the blank was administered with water. Both groups contained 5% DMSO.
The mice were administered by gavage. 4 g/kg of 10% glucose solution was administered (0.8 mL to each mice) 15 minutes after administration.
The mice were administered according to above dose (the blank group was administrated with 5% DMSO aqueous solution) and the blood sugar value was measured (−15 minutes).
15 minutes after administration, the mice were administered of 4 g/kg of 20% glucose solution and the values of blood sugar were tested by Roche ACCU-CHEK at 0, 15, 30, 45, 60, 120 minutes.

In series [2] the target is T1, DPP-VIII (Homo sapiens, UniProt Q6V1X1).
T1 construct: purchased Bioscience 80080
T1 sequence (Q6V1X1 whole entry): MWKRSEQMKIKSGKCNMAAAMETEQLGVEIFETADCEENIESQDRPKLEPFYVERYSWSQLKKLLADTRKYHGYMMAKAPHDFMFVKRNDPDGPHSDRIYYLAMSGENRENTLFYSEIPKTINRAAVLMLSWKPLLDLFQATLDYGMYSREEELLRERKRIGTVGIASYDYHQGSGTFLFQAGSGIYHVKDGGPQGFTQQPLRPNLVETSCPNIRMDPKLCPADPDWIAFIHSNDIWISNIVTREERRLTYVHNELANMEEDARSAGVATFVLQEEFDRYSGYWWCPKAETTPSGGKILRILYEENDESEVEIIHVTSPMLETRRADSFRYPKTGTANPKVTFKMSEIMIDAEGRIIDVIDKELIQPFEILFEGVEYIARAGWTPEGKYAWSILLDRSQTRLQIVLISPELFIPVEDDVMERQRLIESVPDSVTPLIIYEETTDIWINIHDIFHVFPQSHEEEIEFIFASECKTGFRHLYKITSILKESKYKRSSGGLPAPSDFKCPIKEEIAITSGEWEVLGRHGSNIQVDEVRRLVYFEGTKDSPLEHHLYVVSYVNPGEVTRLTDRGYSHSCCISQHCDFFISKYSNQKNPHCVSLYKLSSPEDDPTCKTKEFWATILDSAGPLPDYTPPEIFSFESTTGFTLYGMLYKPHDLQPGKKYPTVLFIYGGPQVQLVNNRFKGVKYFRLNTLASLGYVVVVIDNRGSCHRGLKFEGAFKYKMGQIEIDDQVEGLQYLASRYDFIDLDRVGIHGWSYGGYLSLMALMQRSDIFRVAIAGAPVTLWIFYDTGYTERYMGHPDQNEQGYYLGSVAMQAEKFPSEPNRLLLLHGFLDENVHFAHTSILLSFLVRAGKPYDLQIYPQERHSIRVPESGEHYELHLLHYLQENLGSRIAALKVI
Description: DPP-VIII inhibition, Promega DPPIV-Glo Protease Assay. The conditions noted are these: read-out: IC50 DPP8. In kind it is biochemical. The protocol:
(§1) The compounds of the present invention were tested to determine their DPP-IV, DPP-VIII, DPP-IX inhibition activity according to the following methods. The half inhibition concentrations IC50 (the concentration of the test compound showing 50% inhibition to the enzyme activity) of each compound were determined by reaction test and calculation of the mixture of fixed amounts of enzyme and substrate with several different concentrations of the test compounds.
(§2) The compounds of the present invention were tested to determine the DPP-IV, DPP-VIII, DPP-IX inhibition activity in the following tests using Promega DPPIV-Glo™ Protease Assay (Cat No. G8350/G8351) Kit, wherein:
b. DPP-VIII enzyme bought from Bioscience, Catalog no. 80080;
(§3) The preparation procedure of the conventional reagent such as DPPIV-Glo buffer, luciferin reagents needed in the test and the detail operation of the test can refer to the specifications of the kits. The assay was carried out as following steps:
(§4) The tested compounds were dissolved in DMSO to prepare a series of different concentrations of the test compound solution. DPPIV-Glo buffer and the freezing luciferin detection reagent were equilibrated to room temperature. The luciferin detection reagent was dissolved in moderate buffer in a brown flask to form a solution. Then DPP-IV-Glo. was dissolved in ultrapure water to give the appropriate concentration. The substrate solution and the luciferin detection reagent solution were mixed sufficiently in an appropriate ratio (the ratio of the invention is 1:49), and the mixture was layed at room temperature for 30-60 minutes. Tris buffer (2 mM, pH 8.0), the test compounds and DPP-IV (DPP-VIII or DPP-IX) were mixed and then transferred to a 96-well plate. Each test contains double-well of three-well control. The same volume of DMSO was added to the negative control and blank control. Then the 96-well plate was added with mixed solution of luciferin detection reagent and substrate to initiate the reaction. The 96-wells plate was incubated at room temperature on a plate shaker for 40 minutes after sealed. The strength of the fluorescent signal in each well was determined by microplate reader and the inhibition rate to the enzyme of the compound at this concentration was calculated by the formula as following: inhibitory rate: IR=[1−(S−B)/(N−B)]*100% • S: value of the sample • B: value of the blank control • N: value of the negative control
(§5) IC50 of the test compounds can be calculated by the inhibition rate at different concentration.

Series [3] can be described thus: Solubility experiment in four systems. The format is physicochemical. How it is done:
According to the conventional solubility measurement, the solubility of the test samples were determined in four different systems: phosphate buffer solution (PBS, pH=7.4), methanol, 0.1% hydrochloric acid and water.

Series [4] deals with T2, DPP-IV (Homo sapiens, UniProt P27487).
T2 construct: purchased Calbiochem 317630
T2 sequence (P27487 whole entry): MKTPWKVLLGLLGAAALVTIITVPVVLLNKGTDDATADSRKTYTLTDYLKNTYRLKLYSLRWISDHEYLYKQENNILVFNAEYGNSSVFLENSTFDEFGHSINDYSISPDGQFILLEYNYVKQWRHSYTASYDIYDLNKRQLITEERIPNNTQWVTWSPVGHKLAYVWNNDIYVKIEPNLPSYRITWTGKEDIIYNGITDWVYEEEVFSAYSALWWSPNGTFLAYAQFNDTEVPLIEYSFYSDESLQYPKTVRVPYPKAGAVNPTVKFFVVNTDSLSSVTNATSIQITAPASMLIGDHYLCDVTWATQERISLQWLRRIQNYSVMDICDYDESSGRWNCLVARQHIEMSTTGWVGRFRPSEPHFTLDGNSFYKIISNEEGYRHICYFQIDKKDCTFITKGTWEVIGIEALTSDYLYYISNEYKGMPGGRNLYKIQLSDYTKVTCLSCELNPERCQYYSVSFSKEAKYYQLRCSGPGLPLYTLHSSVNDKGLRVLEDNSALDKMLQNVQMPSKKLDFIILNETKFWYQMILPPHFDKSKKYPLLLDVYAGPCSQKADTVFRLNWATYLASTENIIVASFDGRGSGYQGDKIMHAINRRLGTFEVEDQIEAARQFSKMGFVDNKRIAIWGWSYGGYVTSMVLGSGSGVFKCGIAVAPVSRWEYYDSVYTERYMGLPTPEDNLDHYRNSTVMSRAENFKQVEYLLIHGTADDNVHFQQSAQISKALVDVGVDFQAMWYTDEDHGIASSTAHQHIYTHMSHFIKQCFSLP
The conditions noted are these: example 10 of PCT/CN2008/001936; cited from earlier work.

Series [5] deals with T3, DPP-IX (Homo sapiens, UniProt Q86TI2).
T3 construct: purchased Bioscience 80090
T3 sequence (Q86TI2 whole entry): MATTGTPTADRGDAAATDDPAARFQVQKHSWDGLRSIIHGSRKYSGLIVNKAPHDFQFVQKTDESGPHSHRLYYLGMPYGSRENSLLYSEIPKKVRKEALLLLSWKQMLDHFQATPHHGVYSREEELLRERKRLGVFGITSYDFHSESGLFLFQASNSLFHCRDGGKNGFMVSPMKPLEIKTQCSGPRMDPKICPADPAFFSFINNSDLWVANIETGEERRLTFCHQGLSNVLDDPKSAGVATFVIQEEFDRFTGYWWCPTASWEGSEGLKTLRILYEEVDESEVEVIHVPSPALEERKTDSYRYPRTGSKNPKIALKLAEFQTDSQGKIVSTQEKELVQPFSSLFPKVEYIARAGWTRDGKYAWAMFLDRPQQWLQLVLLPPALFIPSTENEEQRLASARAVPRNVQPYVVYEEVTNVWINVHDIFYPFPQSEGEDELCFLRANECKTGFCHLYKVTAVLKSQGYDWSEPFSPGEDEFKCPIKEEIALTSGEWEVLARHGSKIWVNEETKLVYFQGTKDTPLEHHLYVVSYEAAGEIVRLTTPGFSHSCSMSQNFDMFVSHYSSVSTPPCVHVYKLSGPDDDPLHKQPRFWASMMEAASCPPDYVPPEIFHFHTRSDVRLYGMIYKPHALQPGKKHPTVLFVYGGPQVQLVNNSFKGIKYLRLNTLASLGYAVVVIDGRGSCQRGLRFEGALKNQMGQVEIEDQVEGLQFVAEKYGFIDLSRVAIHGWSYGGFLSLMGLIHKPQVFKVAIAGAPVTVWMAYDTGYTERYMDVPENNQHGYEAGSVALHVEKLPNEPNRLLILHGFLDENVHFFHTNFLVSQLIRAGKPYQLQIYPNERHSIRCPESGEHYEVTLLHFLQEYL
Put plainly: DPP-IX inhibition, Promega DPPIV-Glo Protease Assay. In kind it is biochemical. The following applies: read-out: IC50 DPP9. How it is done: as §1, §2
c. DPP-IX enzyme bought from Bioscience, Catalog no. 80090.
as §3, §4, §5

The nature of series [6]: Pharmacokinetics assay in rats (LC/MS/MS plasma concentration). The format is in vivo, SD rats. An excerpt: The compound of Example 3 was administrated intragastrically or tail vein injection to rats and the compounds of Example 1-4, Example 9 and Example 11-12 were administrated intragastrically to determine the drug concentration in plasma at different time points by LC/MS/MS measurement. The pharmacokinetics of the compounds of the present invention was studied and evaluated in rats. And the oral absolute bioavailability was investigated.
Compounds of Example 1-4, Example 9 and Example 11-12.
[…] healthy adult SD rats, male and female in half, were purchased from SINO-BRITSH SIPPR/BK LAB.ANIMAL LTD., CO, License number: SCXK (Shanghai) 2008-0016.
Vein injection group: the proper weighed test compound was dissolved in 0.5 mL of DMSO by ultrasound and then diluted with normal saline to 15 mL to form a 0.3 mg/mL solution.
Intragastrically administered group: the proper weighed test compound was dissolved in 0.5% CMC-Na by ultrasound to form a 0.3 mg/mL of suspension.
32 healthy adult SD rats, male and female in half, were divided into 8 groups so that each group consisted 4 rats. After an overnight fast, the rats were tail vein injected of the compound of Example 3 and intragastrically administered the compound of Example 3 and the salt thereof, at a dose of 3.0 mg/kg (calculated as the free base form) and a volume of 10 mL/kg.
Blood samples (0.2 mL) of the rats in vein injection group were taken from eye socket at pre administration and at 2, 15, 30 minutes and 1.0, 2.0, 4.0, 6.0, 8.0, 12.0, 24.0 hours post administration, which were stored in heparinized tubes and centrifuged for 10 minutes at 3,500 rpm. The plasma samples were stored at −20° C. until analysis. The rats were fed 2 hours after administration.
Blood samples of the rats in intragastrically administered group were taken at pre administration and at 0.5, 1.0, 2.0, 3.0, 4.0, 6.0, 8.0, 12.0, 24.0 hours post administration. The samples were treated with the same method as mentioned above.
50 μL of internal standard solution and 150 μL of methanol were added to 50 μL of rat plasma obtained at various time points after administration. Then the mixture was mixed for 3 minutes using a vortexer and centrifuged for 10 minutes at 13,500 rpm. 10 μL of the supernatant was analyzed by LC/MS/MS.
The compartmental model of pharmacokinetics was fitted for the test compounds and the major pharmacokinetic parameters were calculated by DAS 2.0 software in which Cmax and tmax were the actually measured values. The absolute bioavailability was calculated by AUC0-t taken from post administration and vein injection.

`Cl.N[C@@H](CC(=O)N1CCn2c(C(F)(F)F)nc(C(=O)O)c2C1)Cc1cc(F)c(F)cc1F` [Example 1, (R)-7-[3-Amino-4-(2,4,5-trifluorophenyl)-butanoyl]-3-trifluoromethyl-5,6,7,8-tetrahydro-imidazo[1,5-a]pyrazine-1-carboxylic acid hydrochloride]: in series [1], the “Hypoglycemic rate of blood sugar of 30 minutes after administration” value amounted to 16.06%. The IC50 in series [2] is 87.9 µM; in series [5], 63.6 µM. For the same molecule, the solubility in series [3] (0.1% hydrochloric acid, simulated gastric fluid, 0.1% hydrochloric acid, read-out: Solubility Value, 0.1% HCl) was 17.2 mg/mL; in series [3] (methanol, organic solvent or mixture, methanol, read-out: Solubility Value, methanol) it was 31.3 mg/mL; in series [3] (phosphate buffer solution (PBS), pH 7.4, aqueous buffer, PBS pH 7.4, read-out: Solubility Value, PBS (pH 7.4)) it was 18.6 mg/mL; in series [3] (water, read-out: Solubility Value, water) it was 20.9 mg/mL. Besides, the “inhibition activity against DPP-IV (in words)” value in series [4] is listed as “excellent inhibition activity”. The molecule further showed a half-life in series [6] (both sexes, SD, rat, plasma, po, 3 mg/kg, intragastric 3.0 mg/kg) of 1.74 ± 0.16 h. In series [6] (both sexes, SD, rat, plasma, po, 3 mg/kg, intragastric 3.0 mg/kg, read-out: AUC0-t), the AUC(0-t) was determined as 66.6 ± 19.5 ng·h/mL. In addition, the CL/F in series [6] (both sexes, SD, rat, plasma, po, 3 mg/kg, intragastric 3.0 mg/kg, read-out: CL/F (converted)) is 760 mL/min/kg. Moreover, the Cmax in series [6] (both sexes, SD, rat, plasma, po, 3 mg/kg, intragastric 3.0 mg/kg, read-out: Cmax) was determined as 18 ± 7.5 ng/mL. The MRT in series [6] (both sexes, SD, rat, plasma, po, 3 mg/kg, intragastric 3.0 mg/kg, read-out: MRT) came out at 3.17 ± 0.36 h. In series [6] (both sexes, SD, rat, plasma, po, 3 mg/kg, intragastric 3.0 mg/kg, read-out: Tmax), the Tmax was 2.5 ± 1 h. Further, the Vd/F in series [6] (both sexes, SD, rat, plasma, po, 3 mg/kg, intragastric 3.0 mg/kg, read-out: Vz/F) was determined as 114 ± 27 L/kg. The same molecule came in with a F in series [6] (intragastric 3.0 mg/kg (as free base), absolute bioavailability from AUC0-t vs vein injection) of 2.90%.

A word on the IC50: it is the concentration that inhibits the measured activity by half. A word on the solubility: it is the dissolved amount per volume that the medium holds. As a reminder, the half-life is the time in which the quantity being followed falls by half. Low values mean rapid decline, high ones slow decline. In general, Cmax refers to the maximum level reached in the sampled fluid or tissue. The MRT is a mean duration of stay, worked out from the concentration-time curve. As a reminder, the Tmax is the time from dosing to the highest level.
